# Test results published in US6204293A, “Inhibitors of protein isoprenyl transferases” (University of Pittsburgh, priority 1998, dated 2001).
# Counter-ions that a name gives are not always drawn.
# Molecular target: T1, Rat brain protein farnesyltransferase (Rattus norvegicus, UniProt Q02293+Q04631)
# T1 construct: Rat brain protein farnesyltransferase activity is measured; from tissue; host or cells: rat brain
# Assay: % inhibition of farnesylation, scintillation proximity assay with biotin-K Ras B fragment
# Format: biochemical
# Details: Table 1; 1 × 10^-5 M
# Method in brief: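 Rat brain enzyme, purified through three steps, in a scintillation proximity assay kit with biotin-K Ras B fragment substrate at 0.1 mM final. Value is % inhibition of farnesylation.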
# T1 sequence (Q02293 whole entry, one chain of several): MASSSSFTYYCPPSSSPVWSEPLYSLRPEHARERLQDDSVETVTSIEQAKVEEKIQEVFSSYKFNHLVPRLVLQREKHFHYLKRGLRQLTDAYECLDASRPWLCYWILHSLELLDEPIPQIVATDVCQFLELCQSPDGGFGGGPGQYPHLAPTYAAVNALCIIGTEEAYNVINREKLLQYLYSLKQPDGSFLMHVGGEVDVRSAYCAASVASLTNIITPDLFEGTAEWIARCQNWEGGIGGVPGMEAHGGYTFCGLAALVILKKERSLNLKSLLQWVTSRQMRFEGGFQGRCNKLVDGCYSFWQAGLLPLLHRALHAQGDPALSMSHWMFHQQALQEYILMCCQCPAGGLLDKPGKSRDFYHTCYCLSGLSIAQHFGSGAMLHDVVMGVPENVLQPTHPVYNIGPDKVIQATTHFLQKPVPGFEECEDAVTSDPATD
row,SMILES,% inhibition at 1 × 10^-5 M [%]
1,CSCC[C@H](NC(=O)c1ccc(CNCCN2CCCCC2)cc1-c1ccccc1)C(=O)O [Example 366],83
2,CSCC[C@H](NC(=O)c1ccc(NC(=O)CCN)cc1-c1ccccc1)C(=O)O [Example 750],44
3,CSCC[C@H](NC(=O)c1ccc(NC(=O)Cc2ccccc2[N+](=O)[O-])cc1-c1ccccc1)C(=O)O [Example 757],58

# Same assay, conditions: Table 2; 1 × 10^-6 M
row,SMILES,% inhibition at 1 × 10^-6 M [%]
1,CSCC[C@H](NC(=O)c1ccc(CCc2ccccc2-c2ccccc2)cc1-c1ccccc1C)C(=O)[O-].[Li+] [Example 452],96
2,COc1ccc(CNCc2ccc(C(=O)N[C@@H](CCSC)C(=O)O)c(-c3ccccc3)c2)c(OC)c1 [Example 655],35
3,CSCC[C@H](NC(=O)c1ccc(CN(CCc2ccccc2)C(C)C)cc1-c1ccccc1C)C(=O)O [Example 835],96
4,CSCC[C@H](NC(=O)c1ccc(NC(=O)C[C@H]2C[C@@H](C(C)=O)C2(C)C)cc1-c1ccccc1)C(=O)O [Example 751],32
5,CSCC[C@H](NC(=O)c1ccc(/C=C/c2cnccn2)cc1-c1ccccc1C)C(=O)O [Example 495],95
6,CSCC[C@H](NC(=O)c1ccc(NC(=O)[C@@H](N)COCc2ccccc2)cc1-c1ccccc1)C(=O)O [Example 503],57
7,Cc1ccccc1-c1cc(CCc2ccccc2Oc2ccccc2)ccc1C(=O)N[C@@H](CC[S+](C)[O-])C(=O)O (some centres unmarked) [Example 456],81
8,CSCC[C@H](NC(=O)c1ccc(CCCC(=O)c2ccc3ccccc3c2)cc1-c1ccccc1C)C(=O)O [Example 473],96
9,CSCC[C@H](NC(=O)c1ccc(/C=C/CC2CCCCC2)cc1-c1ccccc1C)C(=O)O [Example 471],94
10,CCCCN(C)N(CCC1CCCCC1)Cc1ccc(C(=O)N[C@@H](CCS(C)(=O)=O)C(=O)O)c(-c2ccccc2C)c1 [Example 300],22
11,CSCC[C@H](NC(=O)c1ccc(CN(Cc2ccoc2)C(C)C)cc1-c1ccccc1C)C(=O)O [Example 832],80
12,CSCC[C@H](NC(=O)c1ccc(-c2cccc(-c3ccccc3)c2)cc1-c1ccccc1C)C(=O)[O-].[Li+] [Example 787],70
13,CSCC[C@H](NC(=O)c1ccc(CN(Cc2ccccc2)Cc2ccccc2)cc1-c1ccccc1)C(=O)O [Example 834],55
14,Cc1ccccc1-c1cc(CN(C2CC2)C2(Cc3ccccc3)CCC2)ccc1C(=O)N[C@@H](CCS(C)(=O)=O)C(=O)O [Example 333],99
15,CSCC[C@H](NC(=O)c1ccc(NCCO)cc1-c1ccccc1)C(=O)O [Example 502],24
16,CSCC[C@H](NC(=O)c1ccc(CN[C@@H](/C=C\CC(C)C)CC2CCCCC2)cc1-c1ccccc1)C(=O)O [Example 665],55
17,CSCC[C@H](NC(=O)c1ccc(CNc2cccc(C(N)=O)c2)cc1-c1ccccc1)C(=O)O [Example 682],31
18,CSCC[C@H](NC(=O)c1ccc(CNc2ccccc2Oc2ccccc2)cc1-c1ccccc1)C(=O)O [Example 645],37

# Same assay, conditions: Table 3; 1 × 10^-7 M
row,SMILES,% inhibition at 1 × 10^-7 M [%]
1,CSCC[C@H](NC(=O)c1ccc(CNC(Cc2ccccc2)Cc2ccccc2)cc1-c1ccccc1C)C(=O)O [Example 523],97
2,CCCC(CCC)NOCc1ccc(C(=O)N[C@@H](CCSC)C(=O)O)c(-c2ccccc2C)c1 [Example 929],81

# Same assay, conditions: Table 4; 1 × 10^-8 M
row,SMILES,% inhibition at 1 × 10^-8 M [%]
1,CSCC[C@H](NC(=O)c1ccc(CN(CCC2CCCCC2)C(=O)c2ccccc2)cc1-c1ccccc1C)C(=O)O [Example 762],84
2,CSCC[C@H](NC(=O)c1ccc(/C=C/c2ccc(Oc3cccc(Cl)c3)cc2)cc1-c1ccccc1C)C(=O)O [Example 858],60
3,CSCC[C@H](NC(=O)c1ccc(CN(C(C)=O)C(CC2CCCCC2)CC2CCCCC2)cc1-c1ccccc1C)C(=O)O [Example 909],79
4,CCCCS(=O)(=O)N(Cc1ccc(C(=O)N[C@@H](CCSC)C(=O)O)c(-c2ccccc2C)c1)CC1CCCCC1 [Example 996],80

# Same assay, conditions: read-out: % inhibition at 0.01 μM (**)
row,SMILES,inhibition at 0.01 µM [%]
1,"CCCCC(OCc1ccc(C(=O)N[C@@H](CCSC)C(=O)O)c(-c2ccccc2C)c1)c1cccc(Cl)c1 (some centres unmarked) [Example 1206, N-[4-(1-(3-chlorophenyl)pentan-1-yloxymethyl)-2-(2-methylphenyl)benzoyl]methionine lithium salt]",63

# Same assay, conditions: read-out: % inhibition at 0.01 μM (**); Table 6; ** footnote 0.01 μM (title: 0.01 mM)
row,SMILES,inhibition at 0.01 µM [%]
1,"CCCCSC[C@H](CC1CCCCC1)OCc1ccc(C(=O)N[C@@H](CCSC)C(=O)O)c(-c2ccccc2C)c1 [Example 1312, N-[4-(1-Butylthio-3-cyclohexylprop-2-yloxymethyl)-2-(2-methylphenyl)benzoyl]methionine Lithium Salt]",91
2,"CSCC[C@H](NC(=O)c1ccc(CO[C@@H](CC2CCCCC2)C(=O)N2CCSCC2)cc1-c1ccccc1C)C(=O)O [Example 1054, N-[4-(3-cyclohexyl-N-thiomorpholin-4-ylpropion-2-yloxymethyl)-2-(2-methylphenyl)benzoyl]methionine, lithium salt]",89

# Same assay, conditions: read-out: % inhibition at 0.1 μM (*); Table 6; * footnote 0.1 μM (title: 0.1 mM)
row,SMILES,inhibition at 0.1 µM [%]
1,"CSCC[C@H](NC(=O)c1ccc(COCc2ccccc2CO)cc1-c1ccccc1C)C(=O)O [Example 1043, N-[4-(2-hydroxymethylbenzyloxymethyl)-2-(2-methylphenyl)benzoyl]methionine,lithium salt]",90
2,"CSCC[C@H](NC(=O)c1ccc(COCC2CCCN2C(=O)OCc2ccccc2)cc1-c1ccccc1C)C(=O)O (some centres unmarked) [Example 1128, lithium salt]",86
3,"CSCC[C@H](NC(=O)c1ccc(COC(CCC2CCCCC2)c2ncnn2C)cc1-c1ccccc1C)C(=O)O (some centres unmarked) [Example 1224, N-[4-(1-(1-Methyl-1,2,4-triaz-5-yl)-3-cyclohexylpropan-1-yloxymethyl)-2-(2-methylphenyl)benzoyl]methionine lithium salt]",88

# Same assay, conditions: read-out: % inhibition at 1 × 10^-7 M
row,SMILES,inhibition at 0.1 µM [%]
1,"CSCC[C@H](NC(=O)c1ccc(COCc2ccc(-c3ccc(C=O)cc3)o2)cc1-c1ccccc1C)C(=O)O [Example 448, N-[4-(5-(4-formylphenyl)furan-2-ylmethoxymethyl)-2-(2-methylphenyl)benzoyl]methionine lithium salt]",92
2,"COc1ccccc1COCc1ccc(C(=O)N[C@@H](CCSC)C(=O)O)c(-c2ccccc2C)c1 [Example 931, N-[4-(2-methoxybenzyloxymethyl)-2-(2-methylphenyl)benzoyl]methionine lithium salt]",98

# Same assay, conditions: read-out: % inhibition at 1 × 10^-8 M
row,SMILES,inhibition at 0.01 µM [%]
1,"CSCC[C@H](NC(=O)c1ccc(COCc2ccccc2C(C)C)cc1-c1ccccc1C)C(=O)O [Example 938, N-[4-(2-isopropylbenzyloxymethyl)-2-(2-methylphenyl)benzoyl]methionine lithium salt]",61
2,"CSCC[C@H](NC(=O)c1ccc(COC(Cc2ccccc2)c2cncs2)cc1-c1ccccc1C)C(=O)O (some centres unmarked) [Example 828, N-[4-(1-thiazol-5-yl-2-phenylethoxymethyl)-2-(2-methylphenyl)benzoyl]methionine lithium salt]",87

# Same assay, conditions: read-out: % inhibition at 1 × 10^-8 M; Table 4; 1 × 10^-8 M
row,SMILES,inhibition at 0.01 µM [%]
1,"CSCC[C@H](NC(=O)c1ccc(OCCCCC2CCCCC2)cc1-c1ccccc1C)C(=O)O [Example 567, N-[4-(4-cyclohexyl)butoxy-2-(2-methylphenyl)benzoyl]methionine, lithium salt]",69
